In article PMC10907603, “MFSD7c functions as a transporter of choline at the blood–brain barrier” (Cell Research, 2024):
Numbering of substitutions follows the chain as printed. Names may count otherwise.

Key:
Test in all cases: [3H]choline uptake in transfected HEK293 cells
Assay type in all cases: cell-based
MeMfsd7c = biological target: T1, MeMfsd7c (Oryzias latipes, UniProt H2LZ31); conditions: 100 µM choline, DMEM with 10% FBS, 37 °C, 1 h; labelled compound
T1 construct: gene flvcr2b
T1 sequence (H2LZ31 1-532): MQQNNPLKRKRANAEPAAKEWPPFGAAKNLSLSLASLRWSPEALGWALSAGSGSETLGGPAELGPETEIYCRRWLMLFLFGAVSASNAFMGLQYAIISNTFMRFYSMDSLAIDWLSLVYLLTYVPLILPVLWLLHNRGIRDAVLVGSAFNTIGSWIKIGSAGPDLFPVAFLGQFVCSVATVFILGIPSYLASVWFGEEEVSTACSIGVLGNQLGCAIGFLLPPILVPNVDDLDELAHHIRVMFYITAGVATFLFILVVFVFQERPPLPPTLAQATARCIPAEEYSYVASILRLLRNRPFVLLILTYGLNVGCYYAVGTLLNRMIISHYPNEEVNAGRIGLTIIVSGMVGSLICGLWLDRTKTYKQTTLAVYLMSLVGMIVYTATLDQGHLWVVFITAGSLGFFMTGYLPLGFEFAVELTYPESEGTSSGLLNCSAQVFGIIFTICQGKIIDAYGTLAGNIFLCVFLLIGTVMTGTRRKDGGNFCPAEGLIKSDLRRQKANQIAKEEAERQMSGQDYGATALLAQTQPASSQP

XeMfsd7c = biological target: T2, XeMfsd7c (Xenopus tropicalis, UniProt Q28EC5); conditions: 100 µM choline, DMEM with 10% FBS, 37 °C, 1 h; labelled compound
T2 construct: gene flvcr2
T2 sequence (Q28EC5 1-494): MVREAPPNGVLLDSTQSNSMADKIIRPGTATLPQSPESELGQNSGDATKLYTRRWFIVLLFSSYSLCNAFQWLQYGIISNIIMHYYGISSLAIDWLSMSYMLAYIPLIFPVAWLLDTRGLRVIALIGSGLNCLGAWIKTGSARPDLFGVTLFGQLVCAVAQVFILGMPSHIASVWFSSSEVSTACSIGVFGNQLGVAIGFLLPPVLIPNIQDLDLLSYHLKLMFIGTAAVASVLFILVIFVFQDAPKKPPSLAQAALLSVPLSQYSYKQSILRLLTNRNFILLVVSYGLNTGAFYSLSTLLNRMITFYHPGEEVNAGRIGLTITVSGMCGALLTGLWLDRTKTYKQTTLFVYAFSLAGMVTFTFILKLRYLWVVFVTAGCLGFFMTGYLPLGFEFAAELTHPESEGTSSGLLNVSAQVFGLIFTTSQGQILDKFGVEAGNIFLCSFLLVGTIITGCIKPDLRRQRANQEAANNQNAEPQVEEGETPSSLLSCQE

DaMfsd7c_a = biological target: T3, DaMfsd7c_a (Danio rerio, UniProt A0A0R4ILB2); conditions: 100 µM choline, DMEM with 10% FBS, 37 °C, 1 h; labelled compound
T3 construct: gene flvcr2a
T3 sequence (A0A0R4ILB2 1-470): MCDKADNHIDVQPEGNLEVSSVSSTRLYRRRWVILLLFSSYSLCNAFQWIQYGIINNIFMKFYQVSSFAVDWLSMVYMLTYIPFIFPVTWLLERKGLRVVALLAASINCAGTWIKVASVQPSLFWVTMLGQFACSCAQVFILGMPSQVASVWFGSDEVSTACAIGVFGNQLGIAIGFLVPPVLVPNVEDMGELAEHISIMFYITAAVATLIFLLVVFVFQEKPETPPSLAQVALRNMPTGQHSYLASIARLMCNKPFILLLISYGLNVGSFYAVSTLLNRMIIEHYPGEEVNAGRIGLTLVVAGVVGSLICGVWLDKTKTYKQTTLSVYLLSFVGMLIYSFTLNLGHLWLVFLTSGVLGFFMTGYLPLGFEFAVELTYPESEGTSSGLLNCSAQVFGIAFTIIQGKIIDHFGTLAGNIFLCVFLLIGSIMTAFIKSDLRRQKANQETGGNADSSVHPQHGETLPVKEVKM

DaMfsd7c_b = biological target: T4, DaMfsd7c_b (Danio rerio, UniProt A0A8M9Q308); conditions: 100 µM choline, DMEM with 10% FBS, 37 °C, 1 h; labelled compound
T4 construct: gene flvcr2b
T4 sequence (A0A8M9Q308 1-485): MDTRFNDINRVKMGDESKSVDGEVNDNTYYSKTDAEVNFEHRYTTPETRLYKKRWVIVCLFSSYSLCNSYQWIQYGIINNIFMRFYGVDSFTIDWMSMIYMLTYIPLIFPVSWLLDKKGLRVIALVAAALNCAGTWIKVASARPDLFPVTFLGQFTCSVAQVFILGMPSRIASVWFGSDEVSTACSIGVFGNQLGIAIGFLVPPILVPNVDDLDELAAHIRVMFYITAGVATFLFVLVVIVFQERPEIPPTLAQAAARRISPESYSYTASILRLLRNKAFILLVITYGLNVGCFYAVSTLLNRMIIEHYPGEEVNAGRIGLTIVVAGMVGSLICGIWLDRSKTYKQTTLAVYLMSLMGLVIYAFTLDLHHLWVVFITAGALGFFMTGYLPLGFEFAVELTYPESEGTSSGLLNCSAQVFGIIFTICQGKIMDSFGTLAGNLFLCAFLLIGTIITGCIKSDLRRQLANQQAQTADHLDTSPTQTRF

[1] = substrate: C[N+](C)(C)CCO; conditions: co-expressed human choline kinase A (hChKA), DMEM with 10% FBS, 37 °C, 60 min, labelled compound
Description: [3H]choline uptake in transfected HEK293 cells on hMfsd7c (human MFSD7c, FLVCR2) | The kinetics (Km) and Vmax for choline import by human Mfsd7c under this condition

[2] = substrate: C[N+](C)(C)CCO; conditions: co-expressed human choline kinase A (hChKA), DMEM with 10% FBS, 37 °C, 60 min, labelled compound; remark: listed apart in the source
Description: [3H]choline uptake in transfected HEK293 cells on hMfsd7c (human MFSD7c, FLVCR2) | The Km and Vmax for importing choline by S203Y mutant under this condition were […]

C[N+](C)(C)CCO [choline]
[3H]choline uptake in transfected HEK293 cells (MeMfsd7c): these MFSD7c orthologs also exhibited choline transport activity | [3H]choline uptake in transfected HEK293 cells (XeMfsd7c): these MFSD7c orthologs also exhibited choline transport activity | [3H]choline uptake in transfected HEK293 cells (DaMfsd7c_a): these MFSD7c orthologs also exhibited choline transport activity | [3H]choline uptake in transfected HEK293 cells (DaMfsd7c_b): these MFSD7c orthologs also exhibited choline transport activity

B1: hMfsd7c (human MFSD7c, FLVCR2) (Homo sapiens) (protein)
chain: MVNEGPNQEESDDTPVPESALQADPSVSVHPSVSVHPSVSINPSVSVHPSSSAHPSALAQPSGLAHPSSSGPEDLSVIKVSRRRWAVVLVFSCYSMCNSFQWIQYGSINNIFMHFYGVSAFAIDWLSMCYMLTYIPLLLPVAWLLEKFGLRTIALTGSALNCLGAWVKLGSLKPHLFPVTVVGQLICSVAQVFILGMPSRIASVWFGANEVSTACSVAVFGNQLGIAIGFLVPPVLVPNIEDRDELAYHISIMFYIIGGVATLLLILVIIVFKEKPKYPPSRAQSLSYALTSPDASYLGSIARLFKNLNFVLLVITYGLNAGAFYALSTLLNRMVIWHYPGEEVNAGRIGLTIVIAGMLGAVISGIWLDRSKTYKETTLVVYIMTLVGMVVYTFTLNLGHLWVVFITAGTMGFFMTGYLPLGFEFAVELTYPESEGISSGLLNISAQVFGIIFTISQGQIIDNYGTKPGNIFLCVFLTLGAALTAFIKADLRRQKANKETLENKLQEEEEESNTSKVPTAVSEDHL
notes: full-length cDNA in pcDNA3.1, transiently expressed in HEK293 cells
Km [1]: 100 µM

B2: hMfsd7c (human MFSD7c, FLVCR2) (Homo sapiens; S203Y) (protein)
chain: B1 chain with S203Y
notes: as for B1
Km [2]: 1197 µM
